Source: article PMC11053098, “Unravelling and reconstructing the biosynthetic pathway of bergenin” (Nature Communications, 2024)

Tests used:
AjOMT2 = system: T1, AjOMT2; experiment: HPLC methyltransferase assay; assay type: biochemical, Ardisia japonica; conditions: co-substrate SAM; metal-dependent (Mg2+); details in Supplementary Methods 5-7; read-out: apparent Km
T1 construct: cloned in pET28a (BamHI/EcoRI), E. coli Transetta (DE3), Ni-NTA purified

AjCGT1 = system: T2, AjCGT1; experiment: HPLC glycosyltransferase assay; assay type: biochemical, Ardisia japonica; conditions: co-substrate UDP-Glc; details in Supplementary Methods 5-7; substrate unstable in buffer; read-out: apparent Km
T2 construct: full-length cDNA in pET28a (BamHI/EcoRI), E. coli Transetta (DE3), Ni-NTA purified

Km (AjCGT1) [µM] | SMILES | Km (AjOMT2) [µM]
– | O=C(O)c1cc(O)c(O)c(O)c1 [compound 2, GA] | 72
265 | COc1c(O)cc(C(=O)O)cc1O [compound 3, 4-OMGA] | –
– | O=C1O[C@@H]2[C@@H](O)[C@H](O)[C@@H](CO)O[C@H]2c2c1cc(O)c(O)c2O [compound 6, norbergenin] | 494
